Results published in ChEMBL document CHEMBL1143050, “QSAR study on permeability of hydrophobic compounds with artificial membranes” (Bioorg Med Chem, 2007).
Residues, ends and D or L forms follow the SMILES beside them.

Key:
[1] = Partition coefficient, log P of the compound; conditions: octanol/water
[2] = Permeability coefficient through artificial membrane in presence of unstirred water layer by PAMPA
[3] = Permeability coefficient through artificial membrane in presence of stirred water layer
Caco-2 [4] = experiment: Permeability from apical to basolateral side of the Caco-2 cell membrane; assay type: ADME, cell-based; conditions: human
Caco-2 [5] = experiment: Permeability from basolateral to apical side of the Caco-2 cell membrane; assay type: ADME, cell-based; conditions: human

Row | logP [1] | LogP app ([3]; PAMPA) | Structure (SMILES) | LogP app [2] | Papp ([3]; PAMPA) [×10⁻⁶ cm/s] | LogP app ([3]; artificial membrane) | Papp [2] [×10⁻⁶ cm/s] | LogP app (Caco-2 [4]) | LogP app (Caco-2 [5])
1 | 2.04 | – | O=C1N[C@@H](Cc2c[nH]c3ccccc23)C(=O)N[C@H]1Cc1c[nH]c2ccccc12 | -5.04 | – | – | – | – | –
2 | 0.07 | – | O=C1CNC(=O)[C@H](Cc2c[nH]c3ccccc23)N1 | -6.02 | – | – | – | – | –
3 | 0.3 | – | NC(=O)[C@@H](N)Cc1c[nH]c2ccccc12 | -5.56 | – | – | – | – | –
4 | 0.73 | – | CC(=O)N[C@@H](Cc1c[nH]c2ccccc12)C(=O)N[C@H](C(N)=O)C(C)C | -6.18 | – | – | – | – | –
5 | 3.3 | – | CCc1ccc(C)nc1 | -5.55 | 12.9 | -4.89 | 2.85 | – | –
6 | 0.65 | – | CC(=O)N[C@H](Cc1c[nH]c2ccccc12)C(=O)N[C@H](C(N)=O)C(C)C | -6.14 | – | – | – | – | –
7 | – | – | Cc1ccc(O)c(C)c1 | -4.61 | 263 | -3.58 | 24.3 | – | –
8 | – | – | O=C(O)c1c[nH]c2ccccc12 | -6.1 | – | – | – | – | –
9 | – | – | Nc1ccccc1Cl | -4.48 | 246 | -3.63 | 33.1 | – | –
10 | 0.32 | – | CC(=O)N[C@@H](Cc1ccc(O)cc1)C(=O)N[C@@H](CC(C)C)C(N)=O (Ac-Tyr-Leu-NH2) | -6.54 | – | – | – | – | –
11 | 0.54 | – | CC(=O)N[C@@H](Cc1ccc(O)cc1)C(=O)N[C@@H](Cc1ccccc1)C(N)=O (Ac-Tyr-Phe-NH2) | – | – | – | – | – | –
12 | -0.48 | – | NCC(=O)N[C@@H](Cc1c[nH]c2ccccc12)C(N)=O (H-Gly-Trp-NH2) | -6.38 | – | – | – | – | –
13 | 1.38 | – | NC(=O)[C@H](Cc1c[nH]c2ccccc12)NC(=O)[C@@H](N)Cc1ccccc1 (H-Phe-Trp-NH2) | -5.22 | – | – | – | – | –
14 | 0.4 | – | CC(C)[C@H](NC(=O)[C@H](C)NC(=O)[C@@H](N)Cc1c[nH]c2ccccc12)C(N)=O (H-Trp-Ala-Val-NH2) | -6.62 | – | – | – | – | –
15 | – | – | Oc1ccc(Cl)cc1Cl [2,4-DICHLOROPHENOL] | -4.93 | 127 | -3.9 | 11.9 | – | –
16 | – | – | Oc1ccccc1Cl [2-CHLOROPHENOL] | -4.3 | 15.2 | -4.82 | 50 | – | –
17 | – | – | Nc1ccccc1[N+](=O)[O-] [2-NITROANILINE] | -4.54 | 229 | -3.64 | 28.6 | – | –
18 | – | – | Nc1cccc(Cl)c1 [3-CHLOROANILINE] | -4.44 | 261 | -3.58 | 36.7 | – | –
19 | – | – | O=[N+]([O-])c1cccc(O)c1 [3-NITRO-PHENOL] | -4.77 | 69.4 | -4.16 | 17.1 | – | –
20 | – | – | Nc1cccc([N+](=O)[O-])c1 [3-NITROANILINE] | -4.67 | 196 | -3.7 | 21.6 | – | –
21 | – | – | N#Cc1ccc(O)cc1 [4-CYANOPHENOL] | -4.77 | 22.3 | -4.65 | 17 | – | –
22 | – | – | CC(=O)Nc1ccc(O)cc1 [ACETAMINOPHEN] | -6.04 | 2.22 | -5.65 | – | – | –
23 | 0.42 | – | CC(=O)N[C@@H](Cc1c[nH]c2ccccc12)C(N)=O [ACETYLTRYPTOPHANAMIDE] | -5.72 | – | – | – | – | –
24 | – | – | Nc1ccccc1 [ANILINE] | -4.12 | 306 | -3.51 | 75.9 | – | –
25 | – | – | Cc1cc(=O)n(-c2ccccc2)n1C [ANTIPYRINE] | -5.54 | – | – | – | – | –
26 | – | – | CCNc1nc(Cl)nc(NC(C)C)n1 [ATRAZINE] | -4.53 | 72.1 | -4.14 | 29.2 | -4.39 | -4.45
27 | – | – | O=C(N[C@H](CO)[C@H](O)c1ccc([N+](=O)[O-])cc1)C(Cl)Cl [CHLORAMPHENICOL] | – | 5.75 | – | – | – | –

Row | logP [1] | LogP app ([3]; PAMPA) | Structure (SMILES) | LogP app [2] | Papp ([3]; PAMPA) [×10⁻⁶ cm/s] | LogP app ([3]; artificial membrane) | Papp [2] [×10⁻⁶ cm/s] | LogP app (Caco-2 [4]) | LogP app (Caco-2 [5])
28 | 1.43 | -4.94 | Clc1cccc(Cl)c1N=C1NCCN1 [CLONIDINE] | -4.98 | 11.4 | – | – | – | –
29 | – | – | C[C@]12C[C@H](O)[C@H]3[C@@H](CCC4=CC(=O)CC[C@@]43C)[C@@H]1CC[C@@H]2C(=O)CO [CORTICOSTERONE] | -4.77 | 34.2 | -4.47 | – | – | –
30 | 2.01 | – | C[C@@H]1C[C@H]2[C@@H]3CCC4=CC(=O)C=C[C@]4(C)[C@@]3(F)[C@@H](O)C[C@]2(C)[C@@]1(O)C(=O)CO [DEXAMETHASONE] | -5.37 | 11.3 | -4.95 | – | – | –
31 | – | – | CCOC(=O)c1ccccc1C(=O)OCC [DIETHYL PHTHALATE] | -4.82 | – | – | 15.1 | – | –
32 | – | – | O=C(O)c1ccccc1Nc1ccccc1 [FENAMIC ACID] | -4.86 | 24.3 | -4.61 | 13.8 | – | –
33 | – | – | CCC(C)c1ccccc1OC(=O)NC (stereo not given) [FENOBUCARB] | -4.91 | 131 | -3.88 | 12.4 | – | –
34 | – | – | CC(C)(C)N(NC(=O)c1ccc(Cl)cc1)C(=O)c1ccccc1 [HALOFENOZIDE] | -4.76 | – | – | 17.2 | – | –
35 | – | -5.34 | Oc1ccc(O)cc1 [HYDROQUINONE] | -5.14 | 4.6 | – | 7.31 | – | –
36 | – | – | O=C(O)Cc1c[nH]c2ccccc12 [INDOLE-3-ACETIC ACID] | -6.4 | – | – | – | – | –
37 | – | – | O=C(O)CCc1c[nH]c2ccccc12 [INDOLYLPROPIONIC ACID] | -5.68 | – | – | – | – | –
38 | – | – | CC(CCc1ccccc1)NCC(O)c1ccc(O)c(C(N)=O)c1 (stereo not given) [LABETALOL] | -5.18 | 5.64 | -5.25 | – | – | –
39 | – | – | COc1cccc(C(=O)NN(C(=O)c2cc(C)cc(C)c2)C(C)(C)C)c1C [METHOXYFENOZIDE] | -4.72 | – | – | 19.1 | -4.33 | -4.38
40 | – | – | O=[N+]([O-])c1ccccc1O [NITROPHENOLATE] | -4.24 | 216 | -3.36 | 57 | – | –
41 | -1.03 | -6.74 | CCn1cc(C(=O)O)c(=O)c2cc(F)c(N3CCNCC3)cc21 [NORFLOXACIN] | -6.71 | 0.18 | – | – | – | –
42 | – | – | Cc1ccccc1O [ORTHOCRESOL] | -4.28 | 295 | -3.53 | 52.1 | – | –
43 | 2.1 | -5.03 | C=CCOc1ccccc1OCC(O)CNC(C)C (stereo not given) [OXPRENOLOL] | -4.83 | 9.36 | – | – | – | –
44 | 2.26 | – | O=C1NC(=O)C(c2ccccc2)(c2ccccc2)N1 [PHENYTOIN] | -4.41 | 11.9 | -4.93 | – | – | –
45 | 0.1 | – | CN1CCN(CC(=O)N2c3ccccc3C(=O)Nc3cccnc32)CC1 [PIRENZEPINE] | -6.05 | 0.82 | -6.09 | – | – | –
46 | – | – | CC(=O)Nc1ccc(OCC(O)CNC(C)C)cc1 (stereo not given) [PRACTOLOL] | -5.98 | 0.37 | -6.43 | – | – | –
47 | – | -5.52 | CNC(=C[N+](=O)[O-])NCCSCc1ccc(CN(C)C)o1 [RANITIDINE] | -6.05 | 3 | – | – | – | –
48 | – | – | CC(C)(C)N(NC(=O)c1ccccc1)C(=O)c1ccccc1 [RH-5849] | -4.78 | – | – | 16.5 | -4.34 | -4.42
49 | – | – | COP1(=S)OCc2ccccc2O1 (stereo not given) [SALITHION] | -5.03 | 43.9 | -4.36 | 9.39 | – | –
50 | – | – | CCc1ccc(C(=O)NN(C(=O)c2cc(C)cc(C)c2)C(C)(C)C)cc1 [TEBUFENOZIDE] | -4.8 | – | – | 15.7 | -4.44 | -4.39
51 | – | – | Cn1c(=O)c2[nH]cnc2n(C)c1=O.O [THEOPHYLLINE] | -5.31 | – | – | – | – | –
52 | – | – | CCN(CC)C(=O)SCc1ccc(Cl)cc1 [THIOBENCARB] | -4.69 | 92.9 | -4.03 | 20.6 | – | –
53 | 1.54 | – | OCCc1c[nH]c2ccccc12 [TRYPTOPHOL] | -4.72 | – | – | – | – | –

Row | Structure (SMILES) | logP [1] | LogP app ([3]; PAMPA) | LogP app [2] | Papp ([3]; PAMPA) [×10⁻⁶ cm/s] | LogP app ([3]; artificial membrane) | Papp [2] [×10⁻⁶ cm/s] | LogP app (Caco-2 [4]) | LogP app (Caco-2 [5])
54 | O=[N+]([O-])c1cc(Cl)ccc1Cl | 3.03 | – | -5.11 | 80.7 | -4.09 | 7.78 | – | –
55 | Nc1ccc(Cl)cc1 [4-CHLOROANILINE] | 1.88 | – | -4.38 | 258 | -3.59 | 41.8 | – | –
56 | c1ccc(-c2ccccc2)cc1 [BIPHENYL] | 4.01 | -4.27 | -5.95 | 53.3 | – | 1.12 | – | –
57 | Cc1cc(C)cc(C(=O)N(NC(=O)c2ccc3c(c2C)CCCO3)C(C)(C)C)c1 [CHROMAFENOZIDE] | 2.7 | – | -4.78 | – | – | 16.7 | – | –
58 | COC(=O)c1ccccc1C(=O)OC [DIMETHYL PHTHALATE] | 1.56 | – | -4.36 | 158 | -3.8 | 43.3 | – | –
59 | O=[N+]([O-])NC1=NCCN1Cc1ccc(Cl)nc1 [IMIDACLOPRID] | 0.59 | – | -5.34 | 5.21 | -5.31 | 4.52 | – | –
60 | COc1nn(CSP(=S)(OC)OC)c(=O)s1 [METHIDATHION] | 2.5 | – | -4.97 | 46.9 | -4.33 | 10.8 | – | -4.42
61 | CC(C)(C)NCC(O)COc1cccc2c1C[C@H](O)[C@H](O)C2 (stereo not given in full) [NADOLOL] | 0.71 | – | -6.15 | 32.7 | -4.49 | – | – | –
62 | Oc1ccccc1 [PHENOL] | – | -3.83 | -4.33 | – | – | 47 | – | –
63 | CC(C)NCC(O)COc1cccc2[nH]ccc12 (stereo not given) [PINDOLOL] | 1.75 | -5.85 | -5.31 | 1.42 | – | – | – | –
64 | NCCc1c[nH]c2ccccc12 [TRYPTAMINE] | 1.35 | – | -5.27 | – | – | – | – | –
